Like-named read-outs stand apart in the source and are kept apart here.
System: RPMI8226 multiple myeloma (MM) human cell lines
Assay: Cytotoxic effect of CBD, THC and combinations on RPMI8226 cells
Format: cell-based
Conditions: for IC50: Homo sapiens; for survival of MM cells (in words): concentration dependent manner, FIG. 2; for survival of RPMIS MM cells: concentration of about 20 μM and higher
Experimental: This example examines the cytotoxic effect of CBD alone, THC alone and combinations of both compounds. The cytotoxic effect of CBD, THC and their combinations in different ratios such as CBD: THC 1:1; CBD: THC 5:1 and CBD: THC 1:5 were evaluated on RPMI8226 multiple myeloma (MM) human cell lines. Reference is now made to FIG. 2 which presents a graph of RPMIS MM cell line survival (%) vs. concentration (μM).

C=C(C)[C@@H]1CCC(C)=C[C@H]1c1c(O)cc(CCCCC)cc1O [CBD, cannabidiol]
IC50 (RPMI-8226, RPMI8226 (RPMIS) MM cells, read-out: dose that caused 50% of MM cell death): 16 µM
survival of MM cells (in words): decreased the survival
survival of RPMIS MM cells: about 50%

CCCCCc1cc(O)c2c(c1)OC(C)(C)[C@@H]1CCC(C)=C[C@@H]21 [THC, Tetrahydrocannabinol]
IC50 (RPMI-8226, read-out: dose that caused 50% of MM cell death): 22 µM
survival of MM cells (in words): decreased the survival
survival of RPMIS MM cells: about 50%
